Assay results reported in PubChem BioAssay (NCI).
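Tested at 5 concentrations; 48 h exposure; 96-well plates; endpoints linearly interpolated, else capped at highest concentration. The concentration for 50% growth inhibition is given as GI50. Definition used: TGI = concentration required for complete inhibition of growth.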

What was measured:
Experiment in all cases: NCI anticancer screen, dose series, 48 h
NCI-H23 lung = system: NCI-H23 lung
NCI-H460 lung = system: NCI-H460 lung
NCI-H522 lung = system: NCI-H522 lung
NCI/ADR-RES ovarian = system: NCI/ADR-RES ovarian
OVCAR-3 ovarian = system: OVCAR-3 ovarian
OVCAR-4 ovarian = system: OVCAR-4 ovarian
OVCAR-5 ovarian = system: OVCAR-5 ovarian
OVCAR-8 ovarian = system: OVCAR-8 ovarian
PC-3 prostate = system: PC-3 prostate
RPMI-8226 leukemia = system: RPMI-8226 leukemia
SF-268 CNS = system: SF-268 CNS
SF-295 CNS = system: SF-295 CNS
SF-539 CNS = system: SF-539 CNS
SK-MEL-2 melanoma = system: SK-MEL-2 melanoma
SK-MEL-28 melanoma = system: SK-MEL-28 melanoma
SK-MEL-5 melanoma = system: SK-MEL-5 melanoma
SK-OV-3 ovarian = system: SK-OV-3 ovarian
SN12C renal = system: SN12C renal
SNB-19 CNS = system: SNB-19 CNS
SNB-75 CNS = system: SNB-75 CNS
SR leukemia = system: SR leukemia
SW-620 colon = system: SW-620 colon
T-47D breast = system: T-47D breast
TK-10 renal = system: TK-10 renal
U251 CNS = system: U251 CNS
UACC-257 melanoma = system: UACC-257 melanoma
UACC-62 melanoma = system: UACC-62 melanoma
UO-31 renal = system: UO-31 renal

SMILES: CC(C)C[C@H](NC(=O)CCn1ccc2ccccc2c1=O)B(O)O
- GI50 (NCI-H23 lung): 25.4 µM
- TGI (NCI-H23 lung): > 100 µM
- GI50 (NCI-H460 lung): 13 µM
- TGI (NCI-H460 lung): 56.2 µM
- GI50 (NCI-H522 lung): 2.6 µM
- TGI (NCI-H522 lung): 8.09 µM
- GI50 (NCI/ADR-RES ovarian): 67.1 µM
- TGI (NCI/ADR-RES ovarian): > 100 µM
- GI50 (OVCAR-3 ovarian): 1.97 µM
- TGI (OVCAR-3 ovarian): 5.66 µM
- GI50 (OVCAR-4 ovarian): 17 µM
- TGI (OVCAR-4 ovarian): > 100 µM
- GI50 (OVCAR-5 ovarian): 18.8 µM
- TGI (OVCAR-5 ovarian): > 100 µM
- GI50 (OVCAR-8 ovarian): 15.3 µM
- TGI (OVCAR-8 ovarian): > 100 µM
- GI50 (PC-3 prostate): 5.77 µM
- TGI (PC-3 prostate): > 100 µM
- GI50 (RPMI-8226 leukemia): 1.06 µM
- TGI (RPMI-8226 leukemia): 7.07 µM
- GI50 (SF-268 CNS): 5.69 µM
- TGI (SF-268 CNS): 30.4 µM
- GI50 (SF-295 CNS): 3.77 µM
- TGI (SF-295 CNS): 19.6 µM
- GI50 (SF-539 CNS): 1.61 µM
- TGI (SF-539 CNS): 5.62 µM
- GI50 (SK-MEL-2 melanoma): 3.58 µM
- TGI (SK-MEL-2 melanoma): 32.5 µM
- GI50 (SK-MEL-28 melanoma): 3.27 µM
- TGI (SK-MEL-28 melanoma): > 100 µM
- GI50 (SK-MEL-5 melanoma): 4.3 µM
- TGI (SK-MEL-5 melanoma): 19 µM
- GI50 (SK-OV-3 ovarian): 4.72 µM
- TGI (SK-OV-3 ovarian): 81.3 µM
- GI50 (SN12C renal): 11.2 µM
- TGI (SN12C renal): 55.4 µM
- GI50 (SNB-19 CNS): 8.02 µM
- TGI (SNB-19 CNS): > 100 µM
- GI50 (SNB-75 CNS): 2.94 µM
- TGI (SNB-75 CNS): 15.9 µM
- GI50 (SR leukemia): 1.7 µM
- TGI (SR leukemia): 28.9 µM
- GI50 (SW-620 colon): 3 µM
- TGI (SW-620 colon): 12 µM
- GI50 (T-47D breast): 3.71 µM
- TGI (T-47D breast): 29.3 µM
- GI50 (TK-10 renal): 2.93 µM
- TGI (TK-10 renal): 9.8 µM
- GI50 (U251 CNS): 4.23 µM
- TGI (U251 CNS): > 100 µM
- GI50 (UACC-257 melanoma): 3.68 µM
- TGI (UACC-257 melanoma): 33.8 µM
- GI50 (UACC-62 melanoma): 4.29 µM
- TGI (UACC-62 melanoma): 24.9 µM
- GI50 (UO-31 renal): 3.92 µM
- TGI (UO-31 renal): 35.3 µM
